Columns and labels:
[1] = test system: Hairless albino Sh:HR-1 mice; assay: Contact hypersensitivity (CHS) reaction to oxazolone after UV irradiation, Example 2; assay type: in vivo, mouse; conditions: for % Suppression of CHS: UV-irradiated vs non-UV group, lotion 20 μM compound (glucan 10% w/w in lotion B; clover extract 0.5% w/w), topical after each daily UV; for prevention/amelioration of UV induced immunosuppression (in words): topical lotion after UV, CHS model
Description: O'Dell et al (1980 Arch. Dermatol, 116, 559-561) have shown that sun-exposed skin areas on humans are immunologically impaired according to non-exposed skin. A standard model for testing immunosuppression, that is a model with reference to human immunosuppression, is the hairless mouse. A standard test in the hairless mouse model is the contact hypersensitivity (CHS) reaction to an immune irritant such as oxazolone (Asherson and Ptak, Immunology, (1968) 15:405-416). The compound oxazolone induces a vigorous immune response in the hairless mouse which may be measured by ear swelling. Immune suppression by UV light or other agents can be readily tested in the model. See for example Kondo, S, McKenzie, R. C., Sauder, D. N., J. Invest. Dermatol., 103:811-814; Reeve et al, Cancer Letts., 108:271-279 (1996); and Reeve et al, J. Invest. Dermatol., 103:801-806 (1994). As will be shown in the non-limiting examples which follow, compositions comprising compounds of the Formula (I) were active in the treatment/prevention/amelioration of UV induced immunosuppression in the hairless mouse model, which as discussed above is directly referable to the situation in human skin, for example, Yoshikawa et al, J. Invest. Dermatol., 95:530-536, (1990).
The CHS reaction in mice is a standard model for immunosuppression and is a representative model for human immunosuppression (Yoshikawa et al, Invest. Dermatol., 95:530-536 (1990)).
(§1) The CHS reaction was carried out according to the protocol of Reeve et al, Immunology, 78:99-104 (1993). Hairless albino Sh:HR-1 mice were divided into two treatment groups. The first treatment group designated group 1 was not subject to UV irradiation, and received either 0.2 ml of test lotion “A” or test lotion ‘B’ painted on to the dorsal skin on four consecutive days (that is, 4 μmol/mouse, or approximately 0.1 μmol/cm^2). The second treatment group, group 2, were UV irradiated with a minimal erythemal dose of UV light which simulates the toxic effect of sunlight on the skin. After each daily UV treatment 0.2 ml of treatment solution was applied to the dorsal skin as for treatment group 1. Mid-dorsal skinfold thickness was measured every twenty four hours to indicate erythema oedema. CHS to oxazolone was induced on abdominal skin seven days after the first treatment followed by challenge on the ears on day 15, and average ear swelling was determined as a measure of immune response.
Genistein, daidzein, equol, tetrahydrodaidzein, ODMA, dehydroequol and clover extract were tested in this experiment in test lotion “A”. Equol, genistein and clover extract were also tested in tes lotion ‘B’. The results expressed below are given as a percentage of suppression of CHS measured with reference to the non-UV exposed treatment group 1, which is induced by UV exposure.

[2] = test system: Hairless albino Sh:HR-1 mice; assay: Mid-dorsal skinfold thickness (erythema/oedema) after UV irradiation, Example 2; assay type: in vivo, mouse; conditions: for average skin fold increase / negative average skin fold increase: seven days after treatment; for average skin fold increase: one unit = 0.001 in, test lotion A; for erythema/oedema (in words): measured at day four and day seven; for negative average skin fold increase: given as a negative increase, substantially no increase in skin fold thickness
Description: as §1
Erythema/oedema was measured at day four and day seven of the treatment groups. […] For example, at seven days after treatment for base lotion “A” average skin fold thickness was six units (that is 0.006 in), for the daidzein containing lotion average skin fold increase was seven units, and for tetrahydrodaidzein average skin fold thickness was five units. In contrast, for equol, genistein, dehydroequol and ODMA there was a negative average skin fold increase of approximately 0.2, which corresponds to substantially no increase in skin fold thickness.

[3] = test system: Hairless albino Sh:HR-1 mice; assay: CHS reaction to oxazolone after UVB irradiation, equol/glucan lotions, Example 4; assay type: in vivo, mouse; conditions: for % Suppression of CHS: 1 MED (UVB) for 3 days, equol 2.5 uM, glucan 20% in base lotion, ears measured day 15; for decreasing percentage suppression of hypersensitivity and skin fold thickness (in words): compared to the control groups
Description: The CHS reaction was carried out as in Example 2. Hairless albino Sh:HR-1 mice were divided into eight treatment groups as shown: • 1. base lotion+MED (UVB) for […] • 2. glucan (20%) in base lotion+1 MED (UVB) for 3 days • 3. Equol (2.5 uM) in base lotion+1 MED (UVB) for 3 days • 4. Equol (2.5 uM)+glucan (20%) in base lotion+1 MED (UVB) for 3 days • 5. base lotion and no irradiation for three days (Control) • 6. glucan (20%) in base lotion and no irradiation for three days (Control) • 7. Equol (2.5 uM) in base lotion and no irradiation for three days (Control) • 8. Equol (2.5 uM)+glucan (20%) in base lotion and no irradiation for three days (Control)
On days 7 and 8 the mice were sensitised with 2% oxazolone in alcohol (100 ul/mouse). On day 14, the ears were challenged with 2% oxazolone (20 ul/mouse). On day 15, the ears were measured for skin fold thickness and suppression of […] hypersensitivity.

Human subjects = assay: Erythema intensity at UV-irradiated skin sites on the back, post-UV topical lotion, Example 3; assay type: in vivo; conditions: UV + lotion with 100 μM equol
Description: Tests were performed at the Australian Photobiology Testing Facility at the University of Sydney. Human subjects were tested in a controlled solarium. A grid was established using reference coordinate points on the back of each subject, thereby providing a series of treatment sites on the back of each patient where the erythema-reducing potential of compositions according to the invention could be tested.
Compounds of the Formula (I) were dissolved in DMSO and incorporated into base lotion “A” to contain 100 μM of active ingredient, and 0.5% DMSO.
Topical applications were made to the back of the patient within the treatment grid which was established to provide a series of sites for UV irradiation, and subsequent application of compositions. Topical application consisted of 2 mg/cm^2 lotion applied firmly, followed by a second 2 mg/cm^2 applied but not rubbed in. Each topical treatment was therefore 0.4 nmols/cm^2 compound in the Formula (I).
The treatment procedure was as follows. On the first day of treatment a minimum erythemal dose of UV (MED) was established for each subject, this being the minimum degree of UV light which on visual determination produces a reddening of the skin. […] The first treatment day was a Monday. Subsequent treatments were as follows:
Expose 3×3 skin sites to 0.75 MED UV.
Immediately, at four hours and at six hours post-UV, • 1 apply nil to three sites • 2 apply topical base lotion to three sites • 3 apply topical equol lotion to three sites according to technique above. Wednesday
Assess erythema (none visible as expected).
Re-expose same 3×3 skin sites to 0.75 MED UV.
Immediately, at four hours and at six hours post-UV, apply topical lotions as above.
Assess erythema visually by ranking the colour intensity of the 3×3 skin sites.
Re-expose same 3×3 skin sites to one MED UV.
Topical applications as before

| Compound | % Suppression of CHS ([1]; 18 hours of ear challenge) [%] | % Suppression of CHS ([1]; 21 hours of ear challenge) [%] | prevention/amelioration of UV induced immunosuppression (in words) [1] | negative average skin fold increase [2] | also measured |
| --- | --- | --- | --- | --- | --- |
| O=c1c(-c2ccc(O)cc2)coc2cc(O)ccc12 [Daidzein, daidzein] | 27 | 37 | did not ameliorate |  | average skin fold increase [2]: seven |
| β-(1,3)(1,6)-glucan [Glucan only] |  |  |  |  | % Suppression of CHS [3]: 4.5%; decreasing percentage suppression of hypersensitivity and skin fold thickness (in words) [3]: effective |
| O=c1c(-c2ccc(O)cc2)coc2cc(O)cc(O)c12 [Genistein, genistein] | 14 | 13 | significant activity | approximately 0.2 | erythema/oedema (in words) [2]: suppressed erythema/oedema |
| Oc1ccc(C2=Cc3ccc(O)cc3OC2)cc1 [dehydroequol] | 10 | 4 | significant activity | approximately 0.2 |  |
| Oc1ccc(C2COc3cc(O)ccc3C2O)cc1 (stereo not drawn) [tetrahydrodaidzein] | 33 | 31 | did not ameliorate |  | average skin fold increase [2]: five |
| CC(C(=O)c1ccc(O)cc1O)c1ccc(O)cc1 (stereo not drawn) [ODMA, O-desmethyl-angolensin] |  |  |  | approximately 0.2 |  |
| Oc1ccc([C@H]2COc3cc(O)ccc3C2)cc1 [Equol, equol] | 12 | 5 | significant activity | approximately 0.2 | Average erythema intensity (n = 3) (Human subjects; 48 hours, 0.4 nmols/cm^2 per application): 0.21; Average erythema intensity (n = 3) (Human subjects; 52 hours): 0.21; Average erythema intensity (n = 3) (Human subjects; 55.5 hours): 0.67; Average erythema intensity (n = 3) (Human subjects; 71 hours): 0.67; Average erythema intensity (n = 3) (Human subjects; 75 hours): 0.38; Average erythema intensity (n = 3) (Human subjects; 77 hours): 0.54; % Suppression of CHS [3]: 6%; decreasing percentage suppression of hypersensitivity and skin fold thickness (in words) [3]: effective; erythema/oedema (in words) [2]: suppressed erythema/oedema |

From US20050036962A1, “Compositions and method for protecting skin from UV induced immunosuppression and skin damage” (Novogen Research Pty. Ltd., priority 1997, published 2005)
